Source: PubChem BioAssay AID179 (DTP/NCI, 2004)
Activity calls are given as the source filed them.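 Rule for the calls: active = compounds giving half or more protection of infected cells from virus-caused growth loss, again on retest; inactive = the rest.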

Test system: CEM cells HIV-1 protection, formazan growth assay
Assay: NCI AIDS Antiviral Assay
Details: for IC50: measured here: growth of uninfected CEM cells
Protocol: The ability of compounds to protect human CEM cells from HIV-1 infection is measured as a screen for new compounds capable of inhibiting the HIV virus. Five concentrations of drug were tested on uninfected and infected cells and cell growth was measured using a soluble formazan assay. […] Compounds that provided at least 50% protection were retested. Compounds that provided at least 50% protection on retest were listed as moderately active. Compounds that reproducibly provided 100% protection were listed as confirmed active. […] Note that the inability to provide protection could be due to toxicity.

Row | SMILES | EC50 | IC50 | outcome
1 | CC1(C)CC(Nc2ccc(Nc3ccccc3)cc2)CC(C)(C)N1 | > 562 µM | 4.27 µM | –
2 | C[C@@H]1CC(O)C2(O)[C@@]13C[C@@H](OC(=O)[C@@H]3O)[C@](C)(O)[C@@]21COC1=O (stereo partly drawn) | – | – | inactive
3 | CCC1(CCC#N)CCc2[nH]c3ccccc3c2C1=O (stereo not drawn) | > 200 µM | 174 µM | –
4 | CCOC(=O)c1[nH]c(Br)c(-c2ccc(OC)c(OC)c2)c1Br | > 200 µM | 0.0631 µM | –
5 | N#CC1(c2ccccc2)CCOCC1 | > 501 µM | > 501 µM | –
6 | O=C(/C(N=Nc1ccccc1)=C(\O)c1ccccc1)c1ccccc1 | > 21.9 µM | > 21.9 µM | –
7 | CCN(CC)C(=O)N1CCN(C=S)CC1 | > 794 µM | > 794 µM | –
8 | O=P(O)(Cc1ccccc1)c1ccccc1-c1ccccc1 | > 200 µM | 49 µM | –
9 | O=C(O)c1ccc(NNC(=O)c2cccc3c(=O)c4ccccc4[nH]c23)cc1 | > 200 µM | 74.1 µM | –
10 | CCOc1ccc(N=Cc2ccnc3ccccc23)cc1 | – | – | inactive
11 | Cc1nc2ccccc2c(=O)n1-c1nc2ccccc2s1 | > 200 µM | 31.6 µM | –
12 | CC(=O)NC1=CC(=O)c2cc(C)cc(O)c2C1=O | > 200 µM | 5.01 µM | –
13 | O=C1OCCOCCSCCOCCOC(=O)c2cccc1n2 | > 537 µM | 37.2 µM | –
14 | O=C(O)c1cc(CC2Cc3cc4c(cc3C2=O)CCC4)cc2c1CCC2 (stereo not drawn) | > 200 µM | 53.7 µM | –
15 | CCCCCCC1OC(C(=O)OCCCC)C(C(=O)OCCCC)O1 (stereo not drawn) | > 200 µM | > 200 µM | –
16 | CC(=O)CCn1ncc(Cl)c(Cl)c1=O | > 550 µM | 6.92 µM | –
17 | COc1ccc(/C=C/C(=O)c2cc(CN(C)C)c(O)c(CN(C)C)c2)cc1 | > 200 µM | 40.7 µM | –
18 | Nc1ccn(C2OC(CO)C(O)C2Br)c(=O)n1 (stereo not drawn) | > 200 µM | 0.0631 µM | –
19 | C(=N\Nc1nnc2c(n1)[nH]c1ccccc12)/c1ccccc1 | > 200 µM | > 200 µM | –
20 | CC(C)(C)OC[C@H]1N([C@H](COCc2ccccc2)c2ccccc2)C(=O)C1(C)C | > 170 µM | 117 µM | –
21 | CC(C)(C)c1ccn[nH]1.CC(C)(C)c1ccn[nH]1.[Cl-].[Cl-].[O]=[V][O-] | > 200 µM | 35.5 µM | –
22 | O=C(CCc1cccc(O)c1)NCCCNC(=O)CCc1cccc(O)c1 | > 200 µM | > 200 µM | –
23 | Cc1ccc(/C=C2\CCCC\C2=N\O)cc1 | – | – | inactive

Row | SMILES | EC50 | IC50 | outcome
24 | CC(C)COC(=O)CS(=O)(=O)O | > 200 µM | > 200 µM | –
25 | C/C(=N/OC(=O)N(C)C)c1cccc(Cl)c1 | > 200 µM | 166 µM | –
26 | Cc1nn(C2OC(CO)C(O)C(F)C2O)c(=O)[nH]c1=O (stereo not drawn) | > 200 µM | > 200 µM | –
27 | O=C(Nc1ccc(Cl)cc1)C(=O)Nc1ccc(Cl)cc1 | > 200 µM | > 200 µM | –
28 | C[C@@H](CC(=O)O)OC1OC(COC(=O)C(C)(C)C)C(OC(=O)C(C)(C)C)C(OC(=O)C(C)(C)C)C1OC(=O)C(C)(C)C (stereo partly drawn) | > 200 µM | 27.5 µM | –
29 | OCC(c1ccccc1)[P+](c1ccccc1)(c1ccccc1)c1ccccc1 (stereo not drawn) | > 200 µM | 11.2 µM | –
30 | Nc1nc(SSc2nc(N)nc3c2ncn3C2CC(O)C(CO)O2)c2ncn(C3CC(O)C(CO)O3)c2n1 (stereo not drawn) | > 200 µM | 9.33 µM | –
31 | Cc1ccc(S(=O)(=O)NC(=O)n2ccnc2C)cc1 | > 891 µM | – | –
32 | O=C(CC(=O)C1CCOC1=O)C(=O)Nc1ccc(Cl)cc1 (stereo not drawn) | – | – | inactive
33 | Cc1nc2ccccn2c1N=Nc1ccc(C(=O)NN)cc1 | > 33.9 µM | > 33.9 µM | –
34 | CC(=O)O[C@H]1CCC2[C@@H]3CC[C@]4(C)CC(=O)C=C[C@]4(C)C3CC[C@@]21C (stereo partly drawn) | – | – | inactive
35 | Cc1c(C(=O)O)n2c(C)nnc2c2ccccc12 | > 200 µM | > 200 µM | –
36 | CC1=NN(c2ccccc2)C(=O)C1=Nc1c(C)[nH]n(-c2ccccc2)c1=O | > 200 µM | > 200 µM | –
37 | O=C1CCC(=O)N1Sc1ccccc1 | – | – | inactive
38 | Cc1cc(NS(=O)(=O)c2ccc(NC(=O)COC(=O)c3cccc4c(=O)c5ccccc5[nH]c34)cc2)no1 | – | – | inactive
39 | CN(C)P(=O)(c1ccccc1)c1ccccc1 | > 200 µM | > 200 µM | –
40 | CC(=O)NC(CCC(=O)c1ccc(Oc2ccccc2)cc1)(C(=O)O)C(=O)O | > 200 µM | > 200 µM | –
41 | CCOC1CCC2C(CCC(/C=C/c3ccc(O)c4ncccc34)N2C)C1 (stereo not drawn) | > 28.2 µM | 4.9 µM | –
42 | CCc1c(Cc2ccccc2)n(COCCCO[Si](C)(C)C(C)(C)C)c(=O)[nH]c1=O | > 200 µM | 10 µM | –
43 | Cn1cnc2[nH]c(=O)n(OS(=O)(=O)c3ccccc3)c(=O)c21 | > 195 µM | 151 µM | –
44 | O=C(Nc1nc(=S)c2c(ncn2CCOC(=O)c2ccccc2)[nH]1)c1ccccc1 | > 61.7 µM | > 61.7 µM | –
45 | CCCCCCNC(=O)/C(=C\c1ccc(Cl)cc1Cl)NC(=O)c1ccccc1 | > 200 µM | > 200 µM | –
46 | C=CS(=O)(=O)O | > 200 µM | > 200 µM | –

Row | SMILES | EC50 | IC50 | outcome
47 | CCOC(=O)/C(=C\c1ccc(Br)cc1)[Se]c1ccccc1 | > 63.1 µM | > 63.1 µM | –
48 | Cc1ccc(S(=O)(=O)NC(=O)NN2CCCCCC2)cc1 | > 200 µM | > 200 µM | –
49 | Cc1c(C)c([N+](=O)[O-])c2c(c1N)C(=O)c1ccccc1C2=O | – | – | inactive
50 | CCOCC(=O)N[C@H]1CCc2cc(OC)c(OC)c(OC)c2-c2ccc(SC)c(=O)cc21 | > 0.2 µM | 0.00115 µM | –
51 | CCOC(=O)/C(O)=C(/C=N\C(=S)Nc1ccccc1Cl)C(=O)OCC | > 200 µM | > 200 µM | –
52 | C/C(CCn1[nH]c(=O)ccc1=O)=N\Nc1ccc([N+](=O)[O-])cc1[N+](=O)[O-] | – | 20 µM | inactive
53 | O=c1oc2ccccc2c(O)c1C=NC(=S)c1ccncc1 | > 200 µM | 182 µM | –
54 | COc1ccccc1/C=C(\C#N)C(=O)c1ccccc1 | > 20 µM | > 20 µM | –
55 | COC(=O)c1cc(Cc2cc(Br)cc(C(=O)OC)c2O)cc(Cl)c1O | > 100 µM | > 100 µM | –
56 | CCOC(=O)NC(NC1=NCCS1)(C(=O)OCC)C(F)(F)F (stereo not drawn) | > 200 µM | 191 µM | –
57 | Cn1c(=O)cc(C=Nc2ccc(N=Nc3ccccc3)cc2)c2ccccc21 | > 200 µM | 1.51 µM | –
58 | COc1ccc2ccccc2c1Br | > 200 µM | > 200 µM | –
59 | CC(=O)Oc1ccc(/C=C/C(=O)OCCCOC(=O)/C=C/c2ccc(OC(C)=O)c(OC(C)=O)c2)cc1OC(C)=O | > 100 µM | > 100 µM | –
60 | N#CCC1COc2ccccc2O1 (stereo not drawn) | > 200 µM | > 200 µM | –
61 | CCCCCCCC/C=C\CCCCCCCCN=Cc1c(O)c(O)c(C(C)C)c2cc(C)c(-c3c(C)cc4c(C(C)C)c(O)c(O)c(C=NCCCCCCCC/C=C\CCCCCCCC)c4c3O)c(O)c12 | – | – | inactive
62 | Nc1ncnc2ccc(Sc3ccc4ncnc(N)c4c3)cc12 | > 100 µM | > 100 µM | –
63 | Cc1ccc2ccccc2c1CC1S(=O)(=O)OCCOS1(=O)=O | > 200 µM | 115 µM | –
64 | CC(C)CCC[C@@H](C)C1CCC2[C@@H]3CC=C4C[C@@H](OC(=O)CCC(=O)O)CC[C@]4(C)C3CC[C@@]21C (stereo partly drawn) | – | – | inactive
65 | CC1=C(CC/C(C)=C/CCC2(C)CCC([C@H](C)C(=O)O)OO2)C(C)(C)CCC1 (stereo partly drawn) (tested in a mixture with another compound) | – | – | inactive
66 | O=[N+]([O-])c1cccc(-c2nc3ccccc3[nH]2)c1 | – | – | inactive
67 | COc1ccc2c(c1)C(N)=C(c1ccccc1OC)C2=O | > 200 µM | 120 µM | –
68 | CCCCOC(=O)/C(CC(=O)C=C(C)C)=N\NS(=O)(=O)c1ccc(C)cc1 | > 174 µM | > 174 µM | –
69 | CCCCc1ccc(Nc2nc3c(ncn3COCCO)c(=O)[nH]2)cc1 | > 200 µM | > 200 µM | –

Row | SMILES | EC50 | IC50 | outcome
70 | CC(=O)N(CC1CCCN(C)C1)C12CC3CC(CC(C3)C1)C2 (stereo not drawn) | > 117 µM | > 117 µM | –
71 | CC(=O)Nc1ccc(/C(C#N)=C/c2ccc(N(C)CCC#N)cc2)cc1 | > 200 µM | 19.1 µM | –
72 | CC(CC(=O)N[C@H](C[C@@H](C)C(Cl)(Cl)Cl)c1nccs1)C(Cl)(Cl)Cl (stereo partly drawn) | – | – | active
73 | O=NNc1nc(-c2cccnc2)nc2ccccc12 | > 200 µM | > 200 µM | –
74 | OCCC[N+]12CCCN1CCC2 | > 200 µM | > 200 µM | –
75 | C1=C(c2ccccc2)Nc2ccccc2N=C1c1ccccc1 | > 200 µM | > 200 µM | –
76 | C[N+](C)([O-])Cc1cccc(NC(=O)c2ccc(C(=O)Nc3cccc(C[N+](C)(C)[O-])c3)cc2)c1 | > 200 µM | > 200 µM | –
77 | Cc1cc(S(=O)(=O)Nc2n[nH]c(Nc3ccc(Cl)cc3)n2)c(S)cc1Cl | > 100 µM | > 100 µM | –
78 | COc1cc2c(cc1O)-c1oncc1CCC2 | > 77.6 µM | > 77.6 µM | –
79 | COc1ccc(-c2oc3c(CC(=O)O)cccc3c(=O)c2OC)cc1 | > 200 µM | 112 µM | –
80 | CN(C(=O)C12C3C4C1C1C2C3C41I)C(C)(C)C (stereo not drawn) | > 251 µM | > 251 µM | –
81 | COc1ccc(C(c2ccccc2)N2C(=O)CCC2C(=O)O)cc1OC (stereo not drawn) | > 200 µM | > 200 µM | –
82 | O=[N+]([O-])c1ccc(-c2noc(-c3ccc(Cl)cc3)c2C2=NCCN2)cc1 | > 14.1 µM | > 14.1 µM | –
83 | O=C(O)c1ccc(N=Nc2cc(S(=O)(=O)O)c3cccnc3c2O)cc1 | > 19.5 µM | > 19.5 µM | –
84 | O=C(CC(O)CCc1ccc(O)c(O)c1)O[C@H]1Cc2c(O)cc(O)cc2O[C@H]1c1ccc(O)c(O)c1 (stereo partly drawn) | > 200 µM | 14.1 µM | –
85 | Nc1nc(SC2CCCCC2)nc2c1ncn2C1OC(CO)C(O)C1O (stereo not drawn) | > 200 µM | 138 µM | –
86 | COC(=O)c1ccccc1/C=C1\Cc2cc(C)c(C)cc2C1=O | > 100 µM | > 100 µM | –
87 | Nc1nc2ccc(Sc3ccc4nc(N)[nH]c(=O)c4c3)cc2c(=O)[nH]1 | > 100 µM | > 100 µM | –
88 | COC1CCON1C(=O)c1ccccc1 (stereo not drawn) | > 200 µM | > 200 µM | –
89 | COC(=O)c1cc(C)ccc1/C=C1\Cc2cccc(C)c2C1=O | > 200 µM | – | –
